The target in one test is T1, human RNAseH1 (Homo sapiens, UniProt O60930).
T1 construct: hexahistidine (N); made in house; host or cells: E. coli BL21 codon+
T1 sequence (O60930 1-286): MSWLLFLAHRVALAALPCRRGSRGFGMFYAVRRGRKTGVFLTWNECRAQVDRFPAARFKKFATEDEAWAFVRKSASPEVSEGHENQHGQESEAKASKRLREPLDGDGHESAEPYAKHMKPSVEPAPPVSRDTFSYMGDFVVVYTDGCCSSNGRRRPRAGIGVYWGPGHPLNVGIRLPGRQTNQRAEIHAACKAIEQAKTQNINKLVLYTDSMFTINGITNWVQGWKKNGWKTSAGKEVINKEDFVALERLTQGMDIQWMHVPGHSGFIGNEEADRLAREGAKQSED
In words: Oligonucleotide-directed RNAseH assay, recombinant human RNAseH1. To be noted: for Activity vs. human RNAseH1: class by concentration giving inhibition (10, 20, 60 μM); for Inhibition of human RNAseH1: 10 μM, compared directly with HRHPL. The format is biochemical. An outline of the steps:
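His-tagged human RNAseH1, expressed in E. coli and titrated to an activity matching the HBV enzyme, was incubated with internally 32P-labelled RNA plus a complementary DNA oligonucleotide. Reactions ran for 90 min at 42 °C in 65 mM Tris pH 8.0, 190 mM NaCl and 5 mM MgCl2, with 1% DMSO. Cleavage was measured by SDS-PAGE autoradiography.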

The subject of another test is HBV genotype C RNAseH. In words: Oligonucleotide-directed RNAseH cleavage assay, HBV genotype C. The format is biochemical, Hepatitis B virus. The settings on record: class by concentration giving inhibition (10, 20, 60 μM). On the procedure: For the oligonucleotide-directed RNAseH cleavage assay (Gong et al., 2001), 6 μl protein extract (typical protein concentration 2.8 mg/ml) was mixed with 0.5 μg internally ^32P-labeled DRF+ RNA (nucleotides 2401-2605 of the duck HBV genome plus 60 nucleotides of flanking sequences from pBluescript) and 3 μg oligonucleotide D2507- or its corresponding negative control D2526+ on ice in 20 μl under the conditions in Table 1. Some reactions in FIG. 5 employed oligonucleotide D2543M-Sal or its D2453+ negative control as indicated. The reactions were incubated at 42° C. for 90 min. and terminated by addition of Laemmli protein loading buffer and boiling. The samples were resolved by 12% SDS-PAGE, the gels were stained with Coomassie blue to monitor protein loading, and labeled RNA was detected by autoradiography. Candidate inhibitors were dissolved in DMSO and added at the indicated concentrations during assembly of the reactions. Control reactions lacking the compounds contained DMSO as a vehicle control. The RNAseH autoradiograms were scanned and quantified with ImageJ. The oligonucleotides were: D2526+([…]; SEQ ID NO:8), D2507-([…]; SEQ ID NO:9), D2453+([…]; SEQ ID NO:10), and D2543M-Sal ([…]; SEQ ID NO:11).
Incremental improvements were developed in extraction of the HBV RNAseH from the bacterial cell pellets since the data were generated for Examples 1 and 2. Key among these was shifting from using a cup sonicator to a probe sonicator and reducing the duration of the sonication period from 3×60 second bursts to 3×20 second bursts. When the […] genotype C clone that had inconsistent activity under the old extraction conditions (FIG. 6C) was isolated under these conditions, it became consistently and robustly active (FIG. 16).

Entries after “also recorded” stand apart in the source; their conditions may differ.

In the case of `CCOc1ccc(-c2c3cc(O)c(=O)cc-3oc3cc(O)c(O)cc23)cc1` [Compound 30], the “Activity vs. human RNAseH1” value at human RNAseH1 is “+++ (+++ inhibition at 10 μM)”. Moreover, in the test on HBV genotype C RNAseH, the “Activity vs. HBV Biochemical vs. gtC” value is on record as “++ (++ inhibition at 20 μM)”.

For the compound `Cc1nnc(C(=O)NC(C)(C)c2nc(C(=O)NCc3ccc(F)cc3)c(O)c(=O)n2C)o1` [Compound 11, Raltegravir, reference compound], at human RNAseH1, the “Inhibition of human RNAseH1” value is listed as “had no effect on RNAseH1” and the “Activity vs. human RNAseH1” value is “− (− no inhibition at 60 μM)”. For the same compound, the “Activity vs. HBV Biochemical vs. gtC” value in the test with HBV genotype C RNAseH is on record as “++ (++ inhibition at 20 μM)”.

As for `CC(C)c1ccc(O)c(=O)c(O)c1` [Compound 46, beta-thujaplicinol], on human RNAseH1 (0, 5, or 20 μM), the “Effect on human RNAseH1” value is reported as “had little effect on the human RNAseH1”. Further, the “Effect on human RNAseH1 activity” value on human RNAseH1 (0.02 to 100 μM, listed as βTJ) is reported as “had no effect on RNAseH1 activity; also recorded: failed to inhibit recombinant human RNAseH1”. The “Activity vs. human RNAseH1” value at human RNAseH1 was “− (− no inhibition at 60 μM)”. In addition, the “Activity vs. HBV Biochemical vs. gtC” value in the test on HBV genotype C RNAseH is “+++ (+++ inhibition at 10 μM)”.

Take `Cc1cc(=O)oc2cc(O)c(O)cc12` [Compound 34]: the “Activity vs. human RNAseH1” value on human RNAseH1 is recorded as “+ (+ inhibition at 60 μM)”. Moreover, the “Activity vs. HBV Biochemical vs. gtC” value in the test on HBV genotype C RNAseH is “+++ (+++ inhibition at 10 μM)”.

As for `Cc1c2cc(O)c(=O)cc-2oc2cc(O)c(O)cc12` [Compound 8], at human RNAseH1, the “Inhibition of human RNAseH1” value was “inhibited RNAseH1 well” and the “Activity vs. human RNAseH1” value is recorded as “+++ (+++ inhibition at 10 μM)”.

In the case of `NCc1ccc(-c2ccc(Cc3cc(=O)n(O)c4ncccc34)cc2)cc1` [Compound 12, napthyridinone], on human RNAseH1, the “Inhibition of human RNAseH1” value is given as “inhibited it weakly”. Also, in the test with HBV genotype C RNAseH, the “Activity vs. HBV Biochemical vs. gtC” value was “+++ (+++ inhibition at 10 μM)”.

Consider `COc1cc2c(cc1Cc1cccc(Cl)c1F)c(=O)c(C(=O)O)cn2[C@H](CO)C(C)C` [Compound 10, Elvitegravir, reference compound], for which, on human RNAseH1, the “Inhibition of human RNAseH1” value is recorded as “had no effect on RNAseH1” and the “Activity vs. human RNAseH1” value was “− (− no inhibition at 60 μM)”. Further, the “Activity vs. HBV Biochemical vs. gtC” value with HBV genotype C RNAseH is “++ (++ inhibition at 20 μM)”.

The values above are taken from patent US10329542B2, “HBV RNAse H purification and enzyme inhibitors” (Saint Louis University, priority 2012, dated 2019).
